Measurements: patent US6355799B1, “Substituted benzene compounds, process for their preparation, and herbicidal and defoliant compositions containing them” (ISK Americas Incorporated, priority 1997, dated 2002)

Experiments:
Assay type in all cases: in vivo
[1] = tested on: lambsquarters (Chenopodium album, CHEAL); test: Pre-emerge test, greenhouse herbicide activity screening; details: pre-emerge, 14 days after application
Outline: (§1)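 Rating: 0–100 visual injury, 14 DAA. Application: acetone, 187 l/ha, 15–1000 g ai/ha, flat-fan track sprayer with nozzle 40–45 cm above soil or canopy. Post-emerge runs used 0.25% v/v surfactant on 2–3 leaf plants.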

[2] = tested on: sicklepod (Cassia obtusifolia, CASOB); test: as above; details: pre-emerge, 14 days after application
Outline: as §1

[3] = tested on: ivyleaf morningglory (Ipomoea hederacea, IPOHE); test: as above; details: pre-emerge, 14 days after application
Outline: as §1

[4] = tested on: large crabgrass (Digitaria sanguinalis, DIGSA); test: as above; details: pre-emerge, 14 days after application
Outline: as §1

[5] = tested on: green foxtail (Setaria viridis, SETVI); test: as above; details: pre-emerge, 14 days after application
Outline: as §1

[6] = tested on: johnsongrass (Sorghum halepense, SORHA); test: as above; details: pre-emerge, 14 days after application
Outline: as §1

[7] = tested on: barnyardgrass (Echinochloa crus-galli, ECHCG); test: as above; details: pre-emerge, 14 days after application
Outline: as §1

[8] = tested on: velvetleaf (Abutilon theophrasti, ABUTH); test: as above; details: pre-emerge, 14 days after application
Outline: as §1

[9] = tested on: sicklepod (Cassia obtusifolia, CASOB); test: Post-emerge test, greenhouse herbicide activity screening; details: post-emerge, 14 days after application, rating scale 0-100
Outline: as §1

[10] = tested on: ivyleaf morningglory (Ipomoea hederacea, IPOHE); test: as above; details: post-emerge, 14 days after application, rating scale 0-100
Outline: as §1

[11] = tested on: large crabgrass (Digitaria sanguinalis, DIGSA); test: as above; details: post-emerge, 14 days after application, rating scale 0-100
Outline: as §1

[12] = tested on: green foxtail (Setaria viridis, SETVI); test: as above; details: post-emerge, 14 days after application, rating scale 0-100
Outline: as §1

[13] = tested on: barnyardgrass (Echinochloa crus-galli, ECHCG); test: as above; details: post-emerge, 14 days after application, rating scale 0-100
Outline: as §1

[14] = tested on: redroot pigweed (Amaranthus retroflexus, AMARE); test: as above; details: post-emerge, 14 days after application
Outline: as §1

[15] = tested on: velvetleaf (Abutilon theophrasti, ABUTH); test: as above; details: post-emerge, 14 days after application, rating scale 0-100
Outline: as §1

[16] = tested on: field corn (Zea mays L., var. Dekalb 535, CORN); test: Pre-emerge test, crop safety; details: pre-emerge, 14 days after application; for phytotoxicity rating CORN (crop damage): scale 0-100; for phytotoxicity rating CORN: rating scale 0-100
Outline: (§2)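 Visual ratings on a 0-100 scale (0 no damage, 100 all plants dead) were taken at 14 days after treatment. Rates of 15-1000 g ai/ha in acetone, 187 l/ha, were sprayed onto soil one day after planting (pre-emerge) or onto 2-3 leaf plants with 0.25% v/v surfactant (post-emerge).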

[17] = tested on: upland rice (Oryza sp., var. Tebonnet, RICE); test: Pre-emerge test, crop safety; details: pre-emerge, 14 days after application; for phytotoxicity rating RICE (crop damage): scale 0-100; for phytotoxicity rating RICE: rating scale 0-100
Outline: as §2

[18] = tested on: redroot pigweed (Amaranthus retroflexus, AMARE); test: Pre-emerge test, greenhouse herbicide activity screening; details: pre-emerge, 14 days after application
Outline: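 Compounds in acetone were track-sprayed at 15-1000 g ai/ha (187 l/ha) on sandy loam pots: pre-emerge one day after seeding, post-emerge at 2-3 leaf stage with 0.25% v/v non-ionic surfactant. Phytotoxicity was rated 14 days later on a 0 (no damage) to 100 (complete death) scale.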

[19] = tested on: field corn (Zea mays L., var. Dekalb 535, CORN); test: Post-emerge test, crop safety; details: post-emerge, 14 days after application, rating scale 0-100
Outline: (§3)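 Plants grown in 10 cm pots of sandy loam mix received acetone-dissolved compounds through a moving flat-fan nozzle. Doses ranged from 15 to 1000 g ai/ha. Pre-emerge pots were seeded one day earlier, post-emerge pots 8–21 days earlier. Fourteen days on, each pot was graded 0–100 for damage.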

[20] = tested on: upland rice (Oryza sp., var. Tebonnet, RICE); test: Post-emerge test, crop safety; details: post-emerge, 14 days after application, rating scale 0-100
Outline: as §3

[21] = 250 g ai/ha, rating scale 0-100

COc1ccc(-n2c(=O)cc(C(F)(F)F)n(C)c2=O)c(NC(=O)c2ccc3ccccc3c2)c1 [2-143]
phytotoxicity rating CHEAL ([1]; 63 g ai/ha, scale 0-100): 100 | phytotoxicity rating CHEAL ([1]; 250 g ai/ha, scale 0-100): 100 | phytotoxicity rating CASOB ([2]; 63 g ai/ha, scale 0-100): 0 | phytotoxicity rating CASOB ([2]; 250 g ai/ha, scale 0-100): 90 | phytotoxicity rating IPOHE ([3]; 63 g ai/ha, scale 0-100): 0 | phytotoxicity rating IPOHE ([3]; 250 g ai/ha, scale 0-100): 35 | phytotoxicity rating DIGSA ([4]; 63 g ai/ha, scale 0-100): 30 | phytotoxicity rating DIGSA ([4]; 250 g ai/ha, scale 0-100): 100 | phytotoxicity rating SETVI ([5]; 63 g ai/ha, scale 0-100): 30 | phytotoxicity rating SETVI ([5]; 250 g ai/ha, scale 0-100): 70 | phytotoxicity rating SORHA ([6]; 63 g ai/ha, scale 0-100): 30 | phytotoxicity rating SORHA ([6]; 250 g ai/ha, scale 0-100): 80 | phytotoxicity rating ECHCG ([7]; 63 g ai/ha, scale 0-100): 30 | phytotoxicity rating ECHCG ([7]; 250 g ai/ha, scale 0-100): 85 | phytotoxicity rating ABUTH ([8]; 63 g ai/ha, scale 0-100): 100 | phytotoxicity rating ABUTH ([8]; 250 g ai/ha, scale 0-100): 100 | CASOB phytotoxicity rating ([9]; 63 g ai/ha): 70 | CASOB phytotoxicity rating ([9]; 250 g ai/ha): 100 | IPOHE phytotoxicity rating ([10]; 63 g ai/ha): 60 | IPOHE phytotoxicity rating ([10]; 250 g ai/ha): 100 | DIGSA phytotoxicity rating ([11]; 63 g ai/ha): 0 | DIGSA phytotoxicity rating ([11]; 250 g ai/ha): 40 | SETVI phytotoxicity rating ([12]; 63 g ai/ha): 0 | SETVI phytotoxicity rating ([12]; 250 g ai/ha): 40 | ECHCG phytotoxicity rating ([13]; 63 g ai/ha): 0 | ECHCG phytotoxicity rating ([13]; 250 g ai/ha): 30 | AMARE phytotoxicity rating ([14]; 63 g ai/ha, rating scale 0-100): 100 | AMARE phytotoxicity rating [14, 21]: 100 | ABUTH phytotoxicity rating ([15]; 63 g ai/ha): 100 | ABUTH phytotoxicity rating ([15]; 250 g ai/ha): 100 | phytotoxicity rating CORN (crop damage) ([16]; 63 g ai/ha): 0 | phytotoxicity rating CORN (crop damage) ([16]; 250 g ai/ha): 5 | phytotoxicity rating RICE (crop damage) ([17]; 63 g ai/ha): 20 | phytotoxicity rating RICE (crop damage) ([17]; 250 g ai/ha): 65 | phytotoxicity rating AMARE ([18]; 63 g ai/ha, scale 0-100): 100 | phytotoxicity rating AMARE ([18]; 250 g ai/ha, scale 0-100): 100 | CORN phytotoxicity rating (crop damage) ([19]; 63 g ai/ha): 10 | CORN phytotoxicity rating (crop damage) ([19]; 250 g ai/ha): 35 | RICE phytotoxicity rating (crop damage) ([20]; 63 g ai/ha): 40 | RICE phytotoxicity rating (crop damage) ([20]; 250 g ai/ha): 70

CCOC(=O)NNc1c(OC)c(Cl)cc(F)c1-n1c(=O)cc(C(F)(F)F)n(C)c1=O [15-6]
phytotoxicity rating CHEAL ([1]; 63 g ai/ha, rating scale 0-100): 100 | phytotoxicity rating CHEAL [1, 21]: 100 | phytotoxicity rating CASOB ([2]; 63 g ai/ha, rating scale 0-100): 90 | phytotoxicity rating CASOB [2, 21]: 100 | phytotoxicity rating IPOHE ([3]; 63 g ai/ha, rating scale 0-100): 100 | phytotoxicity rating IPOHE [3, 21]: 100 | phytotoxicity rating DIGSA ([4]; 63 g ai/ha, rating scale 0-100): 100 | phytotoxicity rating DIGSA [4, 21]: 100 | phytotoxicity rating SETVI ([5]; 63 g ai/ha, rating scale 0-100): 99 | phytotoxicity rating SETVI [5, 21]: 100 | phytotoxicity rating SORHA ([6]; 63 g ai/ha, rating scale 0-100): 100 | phytotoxicity rating SORHA [6, 21]: 100 | phytotoxicity rating ECHCG ([7]; 63 g ai/ha, rating scale 0-100): 99 | phytotoxicity rating ECHCG [7, 21]: 100 | phytotoxicity rating ABUTH ([8]; 63 g ai/ha, rating scale 0-100): 100 | phytotoxicity rating ABUTH [8, 21]: 100 | Post-emerge Herbicidal Activity CASOB (phytotoxicity rating) ([9]; 63 g ai/ha): 30 | Post-emerge Herbicidal Activity CASOB (phytotoxicity rating) ([9]; 250 g ai/ha): 70 | Post-emerge Herbicidal Activity IPOHE (phytotoxicity rating) ([10]; 63 g ai/ha): 50 | Post-emerge Herbicidal Activity IPOHE (phytotoxicity rating) ([10]; 250 g ai/ha): 100 | Post-emerge Herbicidal Activity DIGSA (phytotoxicity rating) ([11]; 63 g ai/ha): 0 | Post-emerge Herbicidal Activity DIGSA (phytotoxicity rating) ([11]; 250 g ai/ha): 90 | Post-emerge Herbicidal Activity SETVI (phytotoxicity rating) ([12]; 63 g ai/ha): 30 | Post-emerge Herbicidal Activity SETVI (phytotoxicity rating) ([12]; 250 g ai/ha): 75 | Post-emerge Herbicidal Activity ECHCG (phytotoxicity rating) ([13]; 63 g ai/ha): 20 | Post-emerge Herbicidal Activity ECHCG (phytotoxicity rating) ([13]; 250 g ai/ha): 95 | Post-emerge Herbicidal Activity AMARE (phytotoxicity rating) ([14]; 63 g ai/ha, rating scale 0-100 (0 no damage, 100 complete death)): 50 | Post-emerge Herbicidal Activity AMARE (phytotoxicity rating) [14, 21]: 85 | Post-emerge Herbicidal Activity ABUTH (phytotoxicity rating) ([15]; 63 g ai/ha): 100 | Post-emerge Herbicidal Activity ABUTH (phytotoxicity rating) ([15]; 250 g ai/ha): 100 | phytotoxicity rating CORN ([16]; 63 g ai/ha): 95 | phytotoxicity rating CORN ([16]; 250 g ai/ha): 100 | phytotoxicity rating RICE ([17]; 63 g ai/ha): 98 | phytotoxicity rating RICE ([17]; 250 g ai/ha): 100 | phytotoxicity rating AMARE ([18]; 63 g ai/ha, rating scale 0-100): 100 | phytotoxicity rating AMARE [18, 21]: 100 | Post-emerge Herbicidal Activity CORN (crop damage rating) ([19]; 63 g ai/ha): 25 | Post-emerge Herbicidal Activity CORN (crop damage rating) ([19]; 250 g ai/ha): 80 | Post-emerge Herbicidal Activity RICE (crop damage rating) ([20]; 63 g ai/ha): 60 | Post-emerge Herbicidal Activity RICE (crop damage rating) ([20]; 250 g ai/ha): 95
